# Laboratory results taken from ChEMBL document CHEMBL1201862, “PubChem BioAssay data set” (2004).
# The source made the active and inactive calls.
# How the values were obtained:
# [1] = target: T1, Polyadenylate-binding protein 1 (Homo sapiens, UniProt P11940); assay: PABP1 MLLE–PAM2 binding inhibitor potency, dose response, biochemical, fluorescence polarization, FITC-PAM2 peptide (AID 602259); type: functional; conditions: read-out: IC50_Mean
# [2] = target: T1, Polyadenylate-binding protein 1; assay: PABP1 MLLE–PAM2 interaction inhibitors, dose response, miRNA deadenylation inhibitor project, biochemical, fluorescence polarization, Cy5-PAM2 peptide, secondary (AID 602260); type: functional; conditions: read-out: IC50_Mean
# [3] = target: T2, High affinity choline transporter 1 (Homo sapiens, UniProt Q9GZV3); assay: CHT inhibitors, dose response, cell-based, 5-point CRC, membrane potential dye (AID 504840); type: functional
# T2 sequence (Q9GZV3 whole entry): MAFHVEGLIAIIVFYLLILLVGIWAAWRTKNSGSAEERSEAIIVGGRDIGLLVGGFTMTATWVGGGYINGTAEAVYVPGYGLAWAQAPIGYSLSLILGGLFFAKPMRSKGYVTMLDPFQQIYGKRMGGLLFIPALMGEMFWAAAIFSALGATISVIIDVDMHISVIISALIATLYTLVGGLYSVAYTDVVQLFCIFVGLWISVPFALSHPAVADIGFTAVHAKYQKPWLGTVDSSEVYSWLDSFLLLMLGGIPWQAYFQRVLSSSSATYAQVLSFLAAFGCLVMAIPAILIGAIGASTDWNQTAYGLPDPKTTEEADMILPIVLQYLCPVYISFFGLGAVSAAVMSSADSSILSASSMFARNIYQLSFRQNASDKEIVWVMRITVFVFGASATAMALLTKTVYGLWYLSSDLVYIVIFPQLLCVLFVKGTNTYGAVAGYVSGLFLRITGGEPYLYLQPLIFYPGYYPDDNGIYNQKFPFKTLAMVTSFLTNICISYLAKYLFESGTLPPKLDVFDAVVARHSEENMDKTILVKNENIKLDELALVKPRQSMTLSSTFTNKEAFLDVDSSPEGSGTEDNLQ
# [4] = target: T3, Zinc finger protein mex-5 (Caenorhabditis elegans, UniProt Q9XUB2); assay: MEX-5/TCR-2 RNA interaction inhibitors, dose response, biochemical, C. elegans, fluorescence polarization (AID 1960)
# T3 sequence (Q9XUB2 whole entry): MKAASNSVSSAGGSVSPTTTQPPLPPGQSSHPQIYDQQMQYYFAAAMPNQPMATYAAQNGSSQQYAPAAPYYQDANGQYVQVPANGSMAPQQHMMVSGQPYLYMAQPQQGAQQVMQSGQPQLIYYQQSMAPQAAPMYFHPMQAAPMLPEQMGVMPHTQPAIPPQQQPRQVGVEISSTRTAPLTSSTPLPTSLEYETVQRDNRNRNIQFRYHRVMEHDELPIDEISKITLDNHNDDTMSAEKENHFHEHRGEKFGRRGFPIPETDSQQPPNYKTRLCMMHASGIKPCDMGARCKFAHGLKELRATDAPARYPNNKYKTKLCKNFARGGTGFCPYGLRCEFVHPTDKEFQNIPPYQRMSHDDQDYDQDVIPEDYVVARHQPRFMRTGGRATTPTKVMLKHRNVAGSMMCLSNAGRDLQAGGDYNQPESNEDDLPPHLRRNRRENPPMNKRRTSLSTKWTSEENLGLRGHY
# [5] = target: T4, RNA-binding protein pos-1 (Caenorhabditis elegans, UniProt G5EF15); assay: inhibitors of POS-1/mex-3 RNA binding, dose response, biochemical, fluorescence polarization (AID 1964);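 further: purified POS-1 fused to maltose binding protein made in E. coli; potency of compounds blocking POS-1 binding to fluorescent RNA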
# T4 sequence (G5EF15 whole entry): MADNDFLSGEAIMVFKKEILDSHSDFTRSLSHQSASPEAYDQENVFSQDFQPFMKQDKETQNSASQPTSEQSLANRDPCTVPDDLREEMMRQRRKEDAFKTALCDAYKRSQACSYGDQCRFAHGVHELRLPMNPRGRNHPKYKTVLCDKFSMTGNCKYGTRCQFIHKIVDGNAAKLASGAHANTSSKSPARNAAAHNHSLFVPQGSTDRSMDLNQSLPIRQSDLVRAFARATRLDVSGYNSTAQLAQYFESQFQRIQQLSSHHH
# [6] = target: T5, Replicative DNA helicase DnaB (Mycobacterium tuberculosis, UniProt P9WMR3); assay: DnaB intein splicing inhibitors, dose response, biochemical, cell-free fluorescence (AID 449749); type: functional
# T5 sequence (P9WMR3 whole entry): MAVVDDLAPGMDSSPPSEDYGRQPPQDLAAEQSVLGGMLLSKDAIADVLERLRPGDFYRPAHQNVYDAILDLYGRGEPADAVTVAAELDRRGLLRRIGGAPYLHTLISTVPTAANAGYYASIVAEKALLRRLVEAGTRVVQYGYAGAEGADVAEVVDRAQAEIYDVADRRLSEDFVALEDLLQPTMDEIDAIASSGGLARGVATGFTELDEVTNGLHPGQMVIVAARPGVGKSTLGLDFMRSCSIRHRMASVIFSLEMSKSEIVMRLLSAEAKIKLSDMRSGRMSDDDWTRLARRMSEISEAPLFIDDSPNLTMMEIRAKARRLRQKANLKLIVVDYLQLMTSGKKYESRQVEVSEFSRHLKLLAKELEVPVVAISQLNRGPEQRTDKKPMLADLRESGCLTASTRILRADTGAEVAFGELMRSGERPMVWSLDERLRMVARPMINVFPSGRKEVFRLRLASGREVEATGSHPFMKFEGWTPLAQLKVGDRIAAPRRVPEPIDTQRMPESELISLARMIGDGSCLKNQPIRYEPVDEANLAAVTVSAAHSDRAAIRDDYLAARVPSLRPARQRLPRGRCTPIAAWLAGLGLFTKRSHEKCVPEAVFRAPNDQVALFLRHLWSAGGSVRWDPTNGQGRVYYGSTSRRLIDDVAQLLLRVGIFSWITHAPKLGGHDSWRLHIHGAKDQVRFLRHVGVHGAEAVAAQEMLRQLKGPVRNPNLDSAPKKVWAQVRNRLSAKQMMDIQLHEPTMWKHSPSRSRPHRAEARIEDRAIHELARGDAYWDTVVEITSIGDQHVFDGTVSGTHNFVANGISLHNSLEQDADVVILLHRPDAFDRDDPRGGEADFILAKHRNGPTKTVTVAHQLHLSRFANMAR
# [7] = target: FAD-linked sulfhydryl oxidase ALR (Homo sapiens, UniProt P55789); assay: inhibitors of human ALR sulfhydryl oxidase, dose response, biochemical, H2O2 detection, luminescence, cherry-pick (AID 493248)
# Protein RecA = target: T6, Protein RecA (Mycobacterium tuberculosis, UniProt P9WHJ3); assay: Fluorescence Cell-Free Homogeneous Dose Retest to Identify Inhibitors of RecA-Intein Splicing Activity. [Related pubchem assays (depositor defined):AID2097, AID2223, AID489010, AID492950]; type: functional
# T6 sequence (P9WHJ3 whole entry): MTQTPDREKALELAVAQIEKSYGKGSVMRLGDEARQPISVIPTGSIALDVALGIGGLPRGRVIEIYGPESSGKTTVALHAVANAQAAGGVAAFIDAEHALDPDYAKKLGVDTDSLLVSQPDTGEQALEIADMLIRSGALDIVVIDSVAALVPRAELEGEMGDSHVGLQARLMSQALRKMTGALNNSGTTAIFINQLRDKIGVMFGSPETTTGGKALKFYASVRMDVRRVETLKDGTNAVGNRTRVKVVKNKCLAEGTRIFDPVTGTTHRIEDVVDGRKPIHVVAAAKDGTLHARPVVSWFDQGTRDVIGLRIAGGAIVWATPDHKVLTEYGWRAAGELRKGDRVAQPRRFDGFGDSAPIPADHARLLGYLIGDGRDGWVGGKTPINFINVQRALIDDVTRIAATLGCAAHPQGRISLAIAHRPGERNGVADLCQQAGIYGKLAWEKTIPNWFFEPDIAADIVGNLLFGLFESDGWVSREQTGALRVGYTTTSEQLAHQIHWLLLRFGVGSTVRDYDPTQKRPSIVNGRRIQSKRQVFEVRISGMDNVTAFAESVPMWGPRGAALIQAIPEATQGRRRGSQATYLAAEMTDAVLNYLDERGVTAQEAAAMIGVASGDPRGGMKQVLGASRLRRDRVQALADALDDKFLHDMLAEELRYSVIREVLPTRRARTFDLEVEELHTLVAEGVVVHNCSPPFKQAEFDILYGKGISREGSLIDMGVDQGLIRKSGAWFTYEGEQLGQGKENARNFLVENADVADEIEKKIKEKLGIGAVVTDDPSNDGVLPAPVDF
# [8] = inhibitors of clade B AD8 Env fusion, dose response, cell-based, cherry-pick (AID 652062); type: functional;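 further: luciferase signal from cell-cell fusion driven by HIV-1 clade B AD8 Env; potency is for inhibitors of fusion seen as a drop in luminescence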
# [9] = control 3'UTR Renilla luciferase suppression, dose response, counter-screen for Shn3 inhibitor project, cell-based, Clone20-Shn3RL, cherry-picked (AID 624133); type: functional
# [10] = HepG2 cell cytotoxicity, dose response, cytotoxicity control for Shn3 inhibitor project, CellTiter-Glo, cherry-picked (AID 624134); type: functional, cell-based
# [11] = Shn3 3'UTR reporter inhibitors, dose response, cell-based, Clone20 osteoblasts, firefly luciferase, cherry-picked (AID 624132); type: functional;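 further: firefly luciferase luminescence from reporter carrying the Shn3 3'UTR in osteoblasts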
# [12] = ZM109 Env clade C HIV-1 fusion inhibitors, dose response, HeLa effector, CEM target cells, luciferase, cherry-pick (AID 652058); type: functional, cell-based
# BJ [13] = assay: cytotoxicity toward BJ-TERT fibroblasts, dose response, cell-based, RAS-independent, luminescence (AID 1933); type: functional; conditions: Homo sapiens
# INS1 = assay: beta cell apoptosis inhibitors, cytokine rescue, dose response, luminescence, retest (AID 449756); type: functional, cell-based; conditions: Rattus norvegicus;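 further: cell death triggered by IL-1 beta plus TNF-alpha plus IFN-gamma mixture; protective hits raise ATP signal compared with cytokine alone wells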
# BJ [14] = assay: cells; type: functional, cell-based; conditions: Homo sapiens
# BJ [15] = assay: cytotoxicity toward BJ-TERT-LT-ST fibroblasts, dose response, cell-based, RAS-independent, luminescence (AID 1935); type: functional; conditions: Homo sapiens;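 further: BJ fibroblasts immortalized with TERT plus LT and ST oncogenes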
# [16] = cytotoxicity toward DRD oncogenic fibroblasts, dose response, cell-based, non-viral oncogenic, luminescence (AID 1934); type: functional; conditions: Homo sapiens
# T1 sequence (P11940 whole entry): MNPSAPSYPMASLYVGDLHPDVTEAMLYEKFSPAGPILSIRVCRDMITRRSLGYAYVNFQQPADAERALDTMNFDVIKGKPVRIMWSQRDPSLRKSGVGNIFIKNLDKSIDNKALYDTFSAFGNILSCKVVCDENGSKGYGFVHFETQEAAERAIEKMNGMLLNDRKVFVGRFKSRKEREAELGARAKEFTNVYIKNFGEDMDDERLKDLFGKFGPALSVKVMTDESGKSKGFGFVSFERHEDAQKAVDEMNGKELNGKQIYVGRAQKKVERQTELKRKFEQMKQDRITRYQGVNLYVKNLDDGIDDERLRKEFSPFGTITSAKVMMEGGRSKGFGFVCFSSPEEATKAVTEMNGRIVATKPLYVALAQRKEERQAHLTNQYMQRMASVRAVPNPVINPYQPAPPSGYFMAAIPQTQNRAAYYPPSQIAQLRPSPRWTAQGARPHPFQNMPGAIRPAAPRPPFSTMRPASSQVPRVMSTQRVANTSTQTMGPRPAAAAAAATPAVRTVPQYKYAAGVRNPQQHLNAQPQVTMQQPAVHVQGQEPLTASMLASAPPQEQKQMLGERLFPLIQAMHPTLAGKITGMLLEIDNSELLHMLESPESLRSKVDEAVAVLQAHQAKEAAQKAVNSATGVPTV
# FAD-linked sulfhydryl oxidase ALR, sequence (P55789 whole entry): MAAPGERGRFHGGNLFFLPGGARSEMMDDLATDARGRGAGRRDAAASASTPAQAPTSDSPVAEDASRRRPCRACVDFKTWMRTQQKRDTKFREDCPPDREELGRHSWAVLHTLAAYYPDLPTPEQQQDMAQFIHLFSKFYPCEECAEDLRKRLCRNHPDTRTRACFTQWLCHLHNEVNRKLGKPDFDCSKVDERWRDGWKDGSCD
smiles,measurement,setting,value
NS(=O)(=O)c1cccc2c1c([N+](=O)[O-])cc1nc(O)c(O)nc12,IC50,[1],> 66 µM (inactive)
same,IC50,[2],> 66 µM (inactive)
Cc1ccccc1NC(=O)c1ccc(F)c(S(=O)(=O)NCC2CCCO2)c1 (centres undefined),IC50,[3],12.3 µM (active)
COC(=O)c1cccc(-n2c(CCC(=O)O)ccc2-c2cccs2)c1,EC50,[4],> 300 µM (not active)
same,EC50,[5],> 300 µM (not active)
COc1cc2[nH]c(=S)n(NC(=O)c3ccccc3)c(=O)c2cc1OC,IC50,[1],> 66 µM (inactive)
same,IC50,[2],> 66 µM (inactive)
Cc1nnc(Sc2nc3ccccc3o2)c2ccccc12,IC50,[3],13.5 µM (active)
same,AC50,[6],18.4 µM (active)
same,AC50,[7],3.26 µM (active)
same,EC50,Protein RecA,1.28 µM (active)
COc1ccc(Cc2c(O)nc(SCC(=O)NC34CC5CC(CC(C5)C3)C4)nc2O)cc1,IC50,[1],> 66 µM (inactive)
same,IC50,[2],> 66 µM (inactive)
CC(C)(C)c1ccc(/C=C2\Oc3cc(O)ccc3C2=O)cc1,EC50,[4],28.8 µM (active)
same,EC50,[5],31.4 µM (active)
FC(F)(F)c1ccc2c(c1)C1C=CCC1C(c1ccncc1)N2 (centres undefined),EC50,[4],> 300 µM (not active)
same,EC50,[5],> 300 µM (not active)
O=S(=O)(NCc1csc(-c2cccs2)n1)c1cccc(C(F)(F)F)c1,IC50,[3],14.5 µM (active)
COc1ccccc1OCC(=O)c1[nH]c(C)c(C(C)=O)c1C,AC50,[8],46.4 µM (active)
same,AC50,[9],3.81 µM (active)
same,AC50,[10],> 70 µM (inactive)
same,AC50,[11],3.35 µM (active)
same,AC50,[12],2.13 µM (active)
N#CC(C#N)=C(Nc1ccc(F)cc1)SCc1cccc(F)c1,IC50,[3],4.79 µM (active)
same,EC50,BJ [13],13.1 µM (active)
same,AC50,INS1,3.26 µM (active)
same,EC50,BJ [14],33.2 µM (active)
same,EC50,BJ [15],> 150 µM (inconclusive)
same,EC50,[16],29.3 µM (active)
